In PMC5460274 (Scientific Reports, 2017):

Legend:
Type in all cases: cell-based
[1] = molecular target: T1, dimethylarginine dimethylaminohydrolase 1 (DDAH1) (Homo sapiens, UniProt O94760); assay: UPLC-MS of L-citrulline formation from ADMA; […] inhibition at […]
T1 construct: recombinant DDAH1 over-expressed in HEK293T cells (lysate)

[2] = molecular target: T1, dimethylarginine dimethylaminohydrolase 1 (DDAH1); assay: UPLC-MS of L-citrulline formation; […] inhibition at […], time-dependent, reversible on dilution
[3] = molecular target: T1, dimethylarginine dimethylaminohydrolase 1 (DDAH1); assay: UPLC-MS of L-citrulline formation; […] inhibition at […], reversible on dilution

T1 sequence (O94760 2-285): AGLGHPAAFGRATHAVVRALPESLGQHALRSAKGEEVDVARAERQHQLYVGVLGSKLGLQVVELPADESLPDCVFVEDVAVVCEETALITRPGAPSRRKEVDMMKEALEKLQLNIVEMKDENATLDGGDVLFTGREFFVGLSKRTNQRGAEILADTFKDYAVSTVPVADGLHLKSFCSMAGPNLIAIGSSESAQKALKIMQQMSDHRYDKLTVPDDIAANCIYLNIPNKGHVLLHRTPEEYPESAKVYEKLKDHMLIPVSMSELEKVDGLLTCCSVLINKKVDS

## COCCNC(N)=NCCC[C@H](N)C(=O)NS(C)(=O)=O [10a, ZST316]
[1]
  %: 72%

## Cc1c(OCC(F)(F)F)ccnc1C[S+]([O-])c1nc2ccccc2[nH]1 (stereo not drawn) [LPZ, lansoprazole]
[2]
  %: 23%

## COc1ccc2[nH]c([S+]([O-])Cc3ncc(C)c(OC)c3C)nc2c1 (stereo not drawn) [OPZ, omeprazole]
[3]
  %: 24%
